Consider ten compounds from PMC6781194, “Synthesis, cytotoxicities, and carbonic anhydrase inhibition potential of 6-(3-aryl-2-propenoyl)-2(3H)-benzoxazolones” (Journal of Enzyme Inhibition and Medicinal Chemistry, 2019).

The structures appear in SMILES notation.

A short description of data set [1]: Cytotoxic activity (MTT) against normal gingival fibroblast HGF. The data set is classed as cell-based. The conditions noted are these: human, HGF normal gingival fibroblasts, HGF normal oral cells, 48 h incubation. Here is the method:
(§1) Human normal oral mesenchymal cells, gingival fibroblast (HGF), and periodontal ligament fibroblast (HPLF) established from the first premolar tooth extracted from the lower jaw of a child[47] and human OSCC cell line HSC-2 (derived from tongue), purchased from Riken Cell Bank (Tsukuba, Japan), were cultured at 37 °C in DMEM supplemented with 10% heat-inactivated FBS, 100 units/ml penicillin G, and 100 µg/ml streptomycin sulphate under a humidified 5% CO2 atmosphere. HGF and HPLF cells at 10–18 population doubling levels were used in this study.
(§2) Cells were inoculated at 2.5 × 10^3 cells/0.1 ml in a 96-microwell plate (Becton Dickinson Labware, Franklin Lakes, NJ). After 48 h, the medium was replaced with 0.1 ml of fresh medium containing different concentrations of single test compounds. Cells were incubated further for 48 h and the relative viable cell number was then determined by the MTT method[22]^,[48–54]. All benzoxazolone derivatives were dissolved with DMSO at the concentration of 40 mM and stored until use. Control cells were treated with the same amounts of DMSO ([…], 0.03125, 0.0625, 0.125, 0.25, 0.5, and 1.0%) and the cell damage induced by DMSO was subtracted from that induced by test agents. In brief, cells were stained with MTT reagent, dissolved with DMSO, and the absorbance of the MTT-stained cell lysate was measured at 560 nm, using a microplate reader (Infinite F 50R, TECAN, Kawasaki, Japan). […]

In another data set the test system is HSC-2. The experiment in a line: Cytotoxic activity (MTT) against OSCC cell line HSC-2. The data set is classed as cell-based, human. Particulars: for CC50: Homo sapiens, HSC-2, 48 h incubation, MTT, triplicate; for PSE (B/A2)×100: potency-selectivity expression = mean CC50 normal cells / (CC50 HSC-2)^2 × 100; for TS (B/A): tumour specificity = mean CC50 normal cells (HGF, HPLF) / CC50 HSC-2; for increase in cytotoxicity compared to non-substituted compound 1: HSC-2 CC50 ratio versus compound 1; for increase in TS (selectivity) compared to compound 1: TS ratio versus compound 1. The procedure: as §1, §2
(§3) Tumour specificity (TS) was calculated using the following equation: TS = Mean CC50 against three normal oral cell types (HGF, HPLF)/Mean CC50 against four OSCC cell lines (HSC-2). Since HGF cells were derived from gingival tissue, the relative sensitivity of these cells was also compared (as mean CC50 against HGF/mean CC50 against HSC-2).

Data set [2] in a line: Cytotoxic activity (MTT), mean over human normal oral cells. The data set is classed as cell-based. Particulars: HGF and HPLF normal oral fibroblasts (mean of both), read-out: CC50 Human normal oral cells Mean (B). Here is the method: as §1, §2, §3
Data set [3] is described as follows: Cytotoxic activity (MTT) against normal periodontal ligament fibroblast HPLF. The data set is classed as cell-based. Particulars: human, HPLF normal periodontal ligament fibroblasts, HPLF normal oral cells, 48 h incubation. The procedure: as §1, §2
Another data set deals with hCA I (Homo sapiens, UniProt P00915). The experiment in a line: Carbonic anhydrase inhibition, hCA I. Particulars: for Ki: Lineweaver–Burk, three concentrations. The data set is classed as biochemical. The procedure:
(§4) The purification of cytosolic CA isoenzymes (CA I and CA II) was previously described with a simple one-step method by a Sepharose-4B-L tyrosine-sulphanilamide affinity chromatography[42]^,[53]^,[55–58]. The protein quantity in the column effluents was determined spectrophotometrically at 280 nm. Sodium dodecyl sulphate-polyacrylamide gel electrophoresis (SDS-PAGE) was applied with a Bio-Rad Mini Gel system Mini-PROTEIN system (Bio-Rad Laboratories, Inc., Shanghai, China) after purification of both CA isoenzymes. Briefly, it was performed in acrylamide for the running (10%) and the stacking gel (3%) contained SDS (0.1%), respectively. […] Bovine serum albumin was used as a standard protein. The IC50 values were obtained from activity (%) versus compounds plots. For the calculation of Ki values, three different concentrations were used. The Lineweaver–Burk curves were drawn and calculations were realised as before.

Another data set has as its target hCA II (Homo sapiens, UniProt P00918). Description: Carbonic anhydrase inhibition, hCA II. The data set is classed as biochemical. Particulars: for Ki: Lineweaver–Burk, three concentrations. The procedure: as §4

Chain of hCA I (P00915 whole entry): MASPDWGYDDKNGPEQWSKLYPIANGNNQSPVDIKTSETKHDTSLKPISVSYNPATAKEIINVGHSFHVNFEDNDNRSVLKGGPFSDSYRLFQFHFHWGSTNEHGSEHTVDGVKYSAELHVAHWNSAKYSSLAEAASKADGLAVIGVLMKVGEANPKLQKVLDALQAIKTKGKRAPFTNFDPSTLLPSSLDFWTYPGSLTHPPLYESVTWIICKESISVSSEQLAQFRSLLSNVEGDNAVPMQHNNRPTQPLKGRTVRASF

Regarding `O=C(C=Cc1cccc(O)c1)c1ccc2[nH]c(=O)oc2c1` [Compound 5, 6-[3-(3-Hydroxyphenyl)-2-propenoyl]-3H-benzoxazol-2-one], the melting point was in the range of 277 to 279 °C. In data set [1], this compound came in with a cytotoxic concentration (CC50) at 48 h of 55.4 µM. For the same compound, in the data set on HSC-2, the midpoint of cytotoxicity, the CC50, lay at 6.9 µM; the “PSE (B/A2)×100” value amounted to 111; the “TS (B/A)” value worked out at 7.7. Moreover, in data set [2], the CC50 at 48 h worked out at 52.9 µM. This compound also came in with a CC50 at 48 h in data set [3] of 50.3 µM. On hCA I, the IC50 was determined as 69.6 µM and the Ki came out at 63 ± 15.4 µM. At hCA II, 48.5 µM corresponded to half-maximal inhibition (IC50) and the Ki is 35.2 ± 8.36 µM.
In the case of `O=c1[nH]cc(F)c(=O)[nH]1` [Compound 5-FU, 5-Fluorouracil, reference compound], the CC50 at 48 h in data set [1], in data set [2] and in data set [3] was > 1000 µM throughout. Moreover, in the data set with HSC-2, the CC50 came to 37.7 µM. Besides, in the data set on HSC-2, the “PSE (B/A2)×100” value is reported as 80.7.
In the case of `Cc1ccc(C=CC(=O)c2ccc3[nH]c(=O)oc3c2)cc1` [Compound 2, 6-[3-(4-Metyhlphenyl)-2-propenoyl]-3H-benzoxazol-2-one], the melting point was in the range of 258 to 260 °C. For the same compound, in data set [1], half-maximal cytotoxicity (CC50 at 48 h) was put at 87.7 µM. Further, in the data set on HSC-2, the “increase in cytotoxicity compared to non-substituted compound 1” value (from here on “increase … to non-substituted compound 1”) is 2.2 times, the CC50 turned out to be 10.1 µM, the “increase in TS (selectivity) compared to compound 1” value (shortened to “increase in TS (selectivity)”) came to 2.7 times and the “PSE (B/A2)×100” value was 94. Besides, the “TS (B/A)” value with HSC-2 was 9.5. In addition, in data set [2], the CC50 at 48 h is 96.5 µM. Also, half-maximal cytotoxicity in data set [3] (CC50 at 48 h) was put at 105 µM. On hCA I, this compound displayed an IC50 of 33 µM and a Ki of 38.8 ± 1.93 µM. On hCA II, this compound came in with an IC50 of 45.6 µM and a Ki of 32.1 ± 6.6 µM.
On to `O=C(C=Cc1ccc(OCc2ccccc2)cc1)c1ccc2[nH]c(=O)oc2c1` [Compound 8, 6-[3-(4-Benzyloxyphenyl)-2-propenoyl]-3H-benzoxazol-2-one], for which the melting point is 243 to 245 °C. In addition, the CC50 at 48 h in data set [1] stood at 98 µM. Further, in the data set with HSC-2, the “increase … to non-substituted compound 1” value came to 1.9 times, the CC50 was 11.9 µM, the “PSE (B/A2)×100” value is on record as 46 and the “TS (B/A)” value is on record as 5.5. Moreover, the CC50 at 48 h in data set [2] is 65.3 µM. Further, the midpoint of cytotoxicity in data set [3], the CC50 at 48 h, lay at 32.7 µM. Moreover, on hCA I, inhibition was half-maximal at 57.7 µM (IC50) and the affinity corresponds to a Ki of 28.4 ± 6.63 µM. On hCA II, this compound gave an IC50 of 18.1 µM and an inhibitory constant (Ki) of 38 ± 2.36 µM.
For the compound `COc1cccc2c1C(=O)c1c(O)c3c(c(O)c1C2=O)C[C@@](O)(C(=O)CO)C[C@@H]3O[C@H]1C[C@H](N)[C@H](O)[C@H](C)O1` [DXR, Doxorubicin, reference compound], the CC50 at 48 h in data set [1] is 0.7 µM; in data set [2], > 5.3 µM; in data set [3] it was > 10 µM. This compound also registered a CC50 with HSC-2 of 0.5 µM. Besides, in the data set on HSC-2, the “PSE (B/A2)×100” value is >2030.
As to `O=C(C=Cc1ccccc1)c1ccc2[nH]c(=O)oc2c1` [Compound 1, 6-(3-Phenyl-2-propenoyl)-3H-benzoxazol-2-one], the melting point was in the range of 230 to 232 °C. Also, half-maximal cytotoxicity in data set [1] (CC50 at 48 h) was put at 71 µM. In the data set on HSC-2, it took 22.1 µM to reach half-maximal cytotoxicity (CC50), the “PSE (B/A2)×100” value was determined as 16 and the “TS (B/A)” value was found to be 3.5. Besides, the CC50 at 48 h in data set [2] worked out at 77.2 µM. In data set [3], this compound returned a CC50 at 48 h of 83.3 µM. At hCA I, this compound returned an IC50 of 58.7 µM and a Ki of 70.6 ± 6.67 µM. On hCA II, this compound had an IC50 of 40.5 µM and a Ki of 36.2 ± 13.3 µM.
For the compound `O=C(C=Cc1ccc(C(F)(F)F)cc1)c1ccc2[nH]c(=O)oc2c1` [Compound 4, 6-[3-(4-Trifluoromethylphenyl)-2-propenoyl]-3H-benzoxazol-2-one], half-maximal cytotoxicity in data set [1] (CC50 at 48 h) was put at 24.7 µM. In the data set with HSC-2 (HSC-2 CC50 ratio versus 5-FU), the “times more cytotoxic than 5-FU” value came to 9.4 times. The “times low cytotoxic than DXR” value with HSC-2 (HSC-2 CC50 ratio versus DXR) is recorded as 8 times. For the same compound, in the data set on HSC-2, the “increase … to non-substituted compound 1” value came out at 5.5 times, the CC50 was determined as 4 µM, the “increase in TS (selectivity)” value came to 1.8 times and the “PSE (B/A2)×100” value came to 159. Also, in the data set with HSC-2, the “TS (B/A)” value was determined as 6.4. Besides, the “PSE value higher than 5-FU” value in the data set with HSC-2 (PSE ratio versus 5-FU) is “about 2 times”. Besides, the “PSE value compared to compound 1” value in the data set on HSC-2 (PSE ratio versus compound 1) came out at 9.9 times. For the same compound, in data set [2], the CC50 at 48 h stood at 25.5 µM. The CC50 at 48 h in data set [3] was 26.3 µM. At hCA I, this compound registered an IC50 of 29.7 µM and a Ki of 30.8 ± 3.49 µM. At hCA II, the IC50 is 45 µM and affinity was put at a Ki of 19.2 ± 2.19 µM.
Regarding `COc1ccc(C=CC(=O)c2ccc3[nH]c(=O)oc3c2)cc1` [Compound 3, 6-[3-(4-Methoxyphenyl)-2-propenoyl]-3H-benzoxazol-2-one], the melting point is 210 to 213 °C. For the same compound, the CC50 at 48 h in data set [1] amounted to 88.3 µM. Also, in the data set on HSC-2, the “increase … to non-substituted compound 1” value amounted to 1.5 times, half-maximal cytotoxicity (CC50) was put at 14.5 µM, the “PSE (B/A2)×100” value stood at 41 and the “TS (B/A)” value stood at 5.9. Further, in data set [2], the CC50 at 48 h was 86.2 µM. In data set [3], this compound showed a CC50 at 48 h of 84 µM. Besides, on hCA I, the IC50 worked out at 47.5 µM and affinity was put at a Ki of 30.5 ± 11.3 µM. On hCA II, this compound returned a concentration for half-maximal inhibition (IC50) of 48.1 µM and a Ki of 36.2 ± 10.3 µM.
With `CN(C)c1ccc(C=CC(=O)c2ccc3[nH]c(=O)oc3c2)cc1` [Compound 7, 6-[3-(4-Dimethylaminophenyl)-2-propenoyl]-3H-benzoxazol-2-one], the melting point is 248 to 250 °C. In data set [1], this compound came in with a CC50 at 48 h of 76.3 µM. In the data set on HSC-2 (HSC-2 CC50 ratio versus compound 1, decrease), the “cytotoxicity reduced compared to compound 1” value was determined as 1.4 times. In the data set on HSC-2, half-maximal cytotoxicity (CC50) was put at 30.2 µM, the “PSE (B/A2)×100” value is 8 and the “TS (B/A)” value was 2.4. Also, in data set [2], the CC50 at 48 h came out at 73.2 µM. Moreover, the CC50 at 48 h in data set [3] was determined as 70 µM. Moreover, on hCA I, the IC50 was 40.3 µM and the affinity, expressed as Ki, was 52.3 ± 9.97 µM. In addition, at hCA II, inhibition was half-maximal at 29.7 µM (IC50) and the affinity, expressed as Ki, was 10.8 ± 2.14 µM.
Consider `CC(C)c1ccc(C=CC(=O)c2ccc3[nH]c(=O)oc3c2)cc1` [Compound 6, 6-[3-(4-Isopropylphenyl)-2-propenoyl]-3H-benzoxazol-2-one], for which the melting point was in the range of 220 to 222 °C. The same compound had a CC50 at 48 h in data set [1] of 53 µM. In the data set on HSC-2, the “increase … to non-substituted compound 1” value worked out at 2.2 times, the CC50 turned out to be 10.1 µM, the “increase in TS (selectivity)” value was 1.8 times and the “PSE (B/A2)×100” value worked out at 64. Also, the “TS (B/A)” value in the data set on HSC-2 was 6.4. The CC50 at 48 h in data set [2] came out at 64.5 µM. The compound also yielded a CC50 at 48 h in data set [3] of 76 µM. Also, at hCA I, the IC50 amounted to 52.1 µM and the Ki is 37.1 ± 7.77 µM. At hCA II, this compound gave an IC50 of 30.1 µM and a Ki of 33.3 ± 6.15 µM.
